Patent publication US5919803A, “3-benzylamino-2-phenylpiperidines as neurokinin antagonists” (Glaxo Group Limited, priority 1995, dated 1999)

Test system: radiation-induced emesis in the ferret
Test: radiation-induced emesis in the ferret
Type: in vivo
Details: 0.1 mg/kg s.c., compound administered 1.5 hours prior to irradiation (whole body, 2 Grey)
Method: In this model of emesis the onset of retching and vomiting occurs approximately 20 minutes after whole body irradiation (2 Grey=200 Rads). The test compound is administered (e.g. i.p, p.o., i.v., s.c) immediately after irradiation and its effect on emesis determined by comparison with appropriate controls. […] Alternatively, the test compounds may be administered before irradiation or before treatment with an emetogen, for example 1.5, 3 or 6 hours before irradiation.

SMILES: CCOc1ccc(-n2nnnc2C(F)(F)F)cc1CN[C@H]1CCCN[C@H]1c1ccccc1.Cl.Cl [Example 1, [2-Ethoxy-5(5-trifluoromethyl-tetrazol-1-yl)-benzyl]-([2S,3S]-2-phenylpiperidine-3-yl)amine dihydrochloride]
- inhibition of radiation-induced emesis: inhibited radiation-induced emesis
